Results published in patent US4528299A, “1-(2,3-Dimethyl-4-methoxyphenyl)-2-methyl-3-(1-pyrrolidinyl)-1-propanone and anti-spastic use thereof” (priority 1982, dated 1985).

Experiments:
[1] = test system: anemic decerebrate rigidity (α-rigidity); test: Effect on anemic decerebrate rigidity (α-rigidity), EMG activity of M. triceps brachii, cumulative i.v. injection; format: in vivo, Male rats of Wistar strain; conditions: for ED50: Rattus norvegicus, iv, 5 min, cumulative 1.25-20 mg/kg, dose reducing EMG activity to 50%; for ED50 / α-Rigidity reducing effect Duration: rats; for α-Rigidity reducing effect Duration: time from disappearance to reappearance of EMG activities after total dose of 20 mg/kg, i.v.
Description: Anemic decerebrate rigidity is known to be a model showing the abnormal hypertonia. This model was prepared according to the method of Fukuda et al [cf. Japan. J. Pharmacol. 24, 810-813 (1974)]. Male rats of Wistar strain, weighing 250 to 350 g, were used in groups of 5 animals. Under the ether anesthesia, the animal was fixed on its back. After the oesophagus and bilateral common carotid arteries were exposed, the trachea was cannulated and the oesophagus was cut between two placed ligatures. The occipital bone was exposed. The common carotid arteries were ligated bilaterally and a trephined opening was made in the central part of the bone. The dura matter was cut along the basilar artery, and the artery was cauterized with a coagulator of bipolar pincette electrodes (Micro-ID made by Mizuhoika Kogyo Co., Ltd., Japan). After the operation, anesthesia was discontinued. The marked rigidity occurred in the forelimbs within 15 minutes after the operation.
The rat was placed on its back and the hindlimbs fixed. Electromyogram (EMG) was recorded by a coaxial needle electrode inserted into the Musculus triceps brachii of the forelimbs. Reference electrode was inserted into the hindlimb muscle. EMG activities obtained from the muscle were amplified, transformed into the square wave pulses with the window discriminator, and fed into integrator, the out-put of which was amplified and recorded by an inkwriting recorder.
The test compounds were dissolved in distilled water. After the EMG activities had remained stable over 15 to 30 minutes, the test compounds were cumulatively injected at a 5-minute interval into a cannulated femoral vein. The doses administered were 1.25 mg/kg, 2.5 mg/kg, 5.0 mg/kg, 10 mg/kg and finally 20 mg/kg. The EMG activities were expressed as a percentage of the pre-injection value, and the maximal effect within 5 minutes was measured in each dose. The median effective dose (ED50), the dose which reduced the EMG activity to 50%, was calculated by the method of Litchfield and Wilcoxon. In addition, the time from disappearance to reappearance of EMG activities after total dose of 20 mg/kg was expressed as the duration of the effect.

muscle relaxation = test: Muscle relaxant effect (Traction test); format: in vivo, Male mice of STD-ddY strain; conditions: for ED50: Mus musculus, ip, 0.25 h, i.p., mice, 15 minutes after administration
Description: Traction test was used as an index of the muscle relaxation. Male mice of STD-ddY strain, weighing 20 to 25 g, were used in groups of 5 animals. The test compounds, suspended or dissolved in 0.5% tragacanth solution, were intraperitoneally administered at a volume of 0.1 ml/10 g body weight, and 15 minutes after the administration the muscle relaxant effects were examined according to the method of Courvoisier et al (cf. "Psychotropic Drugs", ed. by Garattini, S. and Ghetti, V., Elsevier Pub. Co., Amsterdam, 1957, page 373). The animal was suspended by their forelimbs on a horizontal metal bar with a diameter of 2 mm. The rod was 18 cm above the floor. The animals which could not put their hindlimb on the rod within 5 seconds were judged as a positive (all-or-nothing way). The median effective dose (ED50), the dose which caused the positive effects in 50% of animals, were calculated according to the method of Litchfield and Wilcoxon.

Acute toxicity = format: in vivo; conditions: mouse, in vivo, ip, mice; for LD50 at 168 h: 7 days observation; for selectivity ratio: (LD50)/(ED50 of Muscle relaxant effect), i.p., read-out: Safety index
Description: (§1) Male mice of STD-ddY strain, weighing 23 to 25 g, were used in groups of 10 animals. The test compounds, suspended or dissolved in 0.5% tragacanth solution, were intraperitoneally administered at a volume of 0.1 ml/10 g body weight. After the administration, the mice were kept for 7 days, and observed for death. The median lethal dose (LD50), the dose which caused death in 50% of animals, were calculated according to the method of Litchfield and Wilcoxon.

[2] = test system: anemic decerebrate rigidity (α-rigidity); test: Effect on anemic decerebrate rigidity (α-rigidity), EMG activity of M. triceps brachii, cumulative i.v. injection; format: in vivo, Male rats of Wistar strain
mice = test: Acute toxicity; format: in vivo
Description: as §1

Compound: Cc1cc(C)c(C(=O)C(C)CN2CCCCC2)c(C)c1 (stereo not drawn) [Compound 4]
- ED50 [1]: 6.9 mg/kg
- ED50 (muscle relaxation): 123 mg/kg
- LD50 at 168 h (Acute toxicity): 156 mg/kg
- selectivity ratio (Acute toxicity): 1.27
- toxicity in rats [2]: high toxicity in rats

Compound: COc1ccc(C(=O)C(C)CN2CCCCC2)c(C)c1C (stereo not drawn) [Compound 6]
- ED50 [1]: 7.3 mg/kg
- α-Rigidity reducing effect Duration [1]: 11.4 min
- ED50 (muscle relaxation): 77.7 mg/kg
- LD50 at 168 h (Acute toxicity): 145 mg/kg
- selectivity ratio (Acute toxicity): 1.87

Compound: COc1ccc(C(=O)C(C)CN2CCCCC2)cc1OC (stereo not drawn) [Compound 3]
- ED50 [1]: 20.2 mg/kg
- ED50 (muscle relaxation): 158 mg/kg
- LD50 at 168 h (Acute toxicity): 247 mg/kg
- selectivity ratio (Acute toxicity): 1.56

Compound: COc1ccc(C(=O)C(C)CN2CCCC2)c(C)c1C (stereo not drawn) [A, 1-(2,3-dimethyl-4-methoxyphenyl)-2-methyl-3-(1-pyrrolidinyl)-1-propanone]
- ED50 [1]: 2.6 mg/kg
- α-Rigidity reducing effect Duration [1]: 16.3 min
- duration of action relative to Compound No. 1 ([1]; vs Compound No. 1): about 23 times
- potency in the reducing activity of α-rigidity relative to Compound No. 1 ([1]; vs Compound No. 1): about 4.7 times
- duration of action relative to Compound No. 2 ([1]; vs Compound No. 2): about 5.8 times
- potency in the reducing activity of α-rigidity relative to Compound No. 2 ([1]; vs Compound No. 2): about 4.9 times
- potency in α-rigidity reducing activity relative to Compound No. 3 ([1]; vs Compound No. 3): about 7.8 times
- potency in α-rigidity reducing activity relative to Compound No. 4 ([1]; vs Compound No. 4): about 2.7 times
- duration of action relative to Compound No. 5 ([1]; vs Compound No. 5): about 1.9 times
- potency in the reducing activity of α-rigidity relative to Compound No. 5 ([1]; vs Compound No. 5): about 6 times
- potency in the reducing activity of α-rigidity relative to Compound No. 6 ([1]; vs Compound No. 6): about 2.8 times
- duration of action relative to Compound No. 6 ([1]; vs Compound No. 6, in words): somewhat longer
- potency in the reducing activity of α-rigidity relative to Compound No. 7 ([1]; vs Compound No. 7): about 6.6 times
- potency in the reducing activity of α-rigidity relative to Compound No. 8 ([1]; vs Compound No. 8): about 3.7 times
- pharmacological activities relative to known analogous compound Nos. 1 to 5 ([1]; vs compound Nos. 1 to 5, overall conclusion from Tests 1-3): far greater
- pharmacological activities relative to novel analogous compound Nos. 6 to 8 ([1]; vs compound Nos. 6 to 8, overall conclusion from Tests 1-3): fairly or far greater
- ED50 (muscle relaxation): 68.5 mg/kg
- potency in muscle relaxant activity relative to Compound No. 1 (muscle relaxation; vs Compound No. 1): about 2.3 times
- potency in muscle relaxant activity relative to Compound No. 3 (muscle relaxation; vs Compound No. 3): ~2.3 times
- potency in muscle relaxant activity relative to Compound No. 4 (muscle relaxation; vs Compound No. 4): ~1.8 times
- LD50 at 168 h (Acute toxicity): 161 mg/kg
- selectivity ratio (Acute toxicity): 2.35
- safety index relative to Compound No. 1 (mice; vs Compound No. 1): about 1.8 times
- safety index relative to Compound No. 3 (mice; vs Compound No. 3): about 1.5 times
- safety index relative to Compound No. 6 (mice; vs Compound No. 6, in words): higher safety index
- safety index relative to Compound No. 8 (mice; vs Compound No. 8, in words): higher safety index

Compound: Cc1ccc(C(=O)C(C)CN2CCCCC2)cc1 (stereo not drawn) [Compound 1, 2-methyl-1-p-methylphenyl-3-piperidino-1-propanone]
- ED50 [1]: 12.3 mg/kg
- α-Rigidity reducing effect Duration [1]: 0.7 min
- ED50 (muscle relaxation): 156 mg/kg
- LD50 at 168 h (Acute toxicity): 210 mg/kg
- selectivity ratio (Acute toxicity): 1.34

Compound: Cc1ccc(C(=O)C(C)CN2CCCCC2)cc1C (stereo not drawn) [Compound 5]
- ED50 [1]: 15.6 mg/kg
- α-Rigidity reducing effect Duration [1]: 8.8 min
- ED50 (muscle relaxation): 59.3 mg/kg
- LD50 at 168 h (Acute toxicity): 140 mg/kg
- selectivity ratio (Acute toxicity): 2.36

Compound: CCOc1ccc(C(=O)C(C)CN2CCCC2)c(C)c1C (stereo not drawn) [Compound 8]
- ED50 [1]: 9.6 mg/kg
- α-Rigidity reducing effect Duration [1]: 14.8 min
- ED50 (muscle relaxation): 75.5 mg/kg
- LD50 at 168 h (Acute toxicity): 134 mg/kg
- selectivity ratio (Acute toxicity): 1.78

Compound: COc1ccc(C(=O)CCN2CCCC2)c(C)c1C [Compound 7]
- ED50 [1]: 17.2 mg/kg
- ED50 (muscle relaxation): 87.1 mg/kg
- LD50 at 168 h (Acute toxicity): 174 mg/kg
- selectivity ratio (Acute toxicity): 2

Compound: COc1ccc(C(=O)C(C)CN2CCCC2)c(C)c1C (stereo not drawn) [compound (I), 1-(2,3-dimethyl-4-methoxyphenyl)-2-methyl-3-(1-pyrrolidinyl)-1-propanone]
- central muscle relaxant activities in comparison with the known compounds (muscle relaxation; overall conclusion, in words): highly improved, excellent
- toxicity (mice; overall conclusion, in words): low toxicity

Compound: CCc1ccc(C(=O)C(C)CN2CCCCC2)cc1 (stereo not drawn) [Compound 2]
- ED50 [1]: 12.7 mg/kg
- α-Rigidity reducing effect Duration [1]: 2.8 min
- ED50 (muscle relaxation): 64.2 mg/kg
- LD50 at 168 h (Acute toxicity): 129 mg/kg
- selectivity ratio (Acute toxicity): 2.01
